Experiments:
[1] = biological target: Dipeptidyl peptidase 4 (Homo sapiens, UniProt P27487); test: Inhibition of DPP4
[2] = biological target: Dipeptidyl peptidase 8 (Homo sapiens, UniProt Q6V1X1); test: Inhibition of DPP8
[3] = biological target: T1, Dipeptidyl peptidase 2 (Homo sapiens, UniProt Q9UHL4); test: Inhibition of DPP2
[4] = species: Homo sapiens; test: Selectivity for DPP2 over DPP8
[5] = biological target: T1, Dipeptidyl peptidase 2; test: Inhibition of DPP II

Sequence of Dipeptidyl peptidase 4 (P27487 whole entry): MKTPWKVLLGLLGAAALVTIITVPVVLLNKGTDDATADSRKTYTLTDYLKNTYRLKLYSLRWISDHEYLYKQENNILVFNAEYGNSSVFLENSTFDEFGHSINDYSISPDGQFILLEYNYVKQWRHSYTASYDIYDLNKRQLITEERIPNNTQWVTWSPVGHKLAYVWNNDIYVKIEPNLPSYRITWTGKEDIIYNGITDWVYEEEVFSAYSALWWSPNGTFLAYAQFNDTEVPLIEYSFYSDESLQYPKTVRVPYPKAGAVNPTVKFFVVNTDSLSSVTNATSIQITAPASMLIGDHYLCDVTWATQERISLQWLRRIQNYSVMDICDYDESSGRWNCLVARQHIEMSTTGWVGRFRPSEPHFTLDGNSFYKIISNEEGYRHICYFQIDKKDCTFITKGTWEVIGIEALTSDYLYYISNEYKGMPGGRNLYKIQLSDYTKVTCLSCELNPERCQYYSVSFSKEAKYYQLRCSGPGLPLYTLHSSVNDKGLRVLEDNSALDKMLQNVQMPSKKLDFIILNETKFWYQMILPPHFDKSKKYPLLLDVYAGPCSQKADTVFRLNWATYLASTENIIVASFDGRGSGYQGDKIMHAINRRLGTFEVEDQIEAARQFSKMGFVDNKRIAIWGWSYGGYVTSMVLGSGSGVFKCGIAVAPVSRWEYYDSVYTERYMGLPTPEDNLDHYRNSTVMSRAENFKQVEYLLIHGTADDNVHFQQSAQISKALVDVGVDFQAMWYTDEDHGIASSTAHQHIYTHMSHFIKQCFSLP
Sequence of Dipeptidyl peptidase 8 (Q6V1X1 whole entry): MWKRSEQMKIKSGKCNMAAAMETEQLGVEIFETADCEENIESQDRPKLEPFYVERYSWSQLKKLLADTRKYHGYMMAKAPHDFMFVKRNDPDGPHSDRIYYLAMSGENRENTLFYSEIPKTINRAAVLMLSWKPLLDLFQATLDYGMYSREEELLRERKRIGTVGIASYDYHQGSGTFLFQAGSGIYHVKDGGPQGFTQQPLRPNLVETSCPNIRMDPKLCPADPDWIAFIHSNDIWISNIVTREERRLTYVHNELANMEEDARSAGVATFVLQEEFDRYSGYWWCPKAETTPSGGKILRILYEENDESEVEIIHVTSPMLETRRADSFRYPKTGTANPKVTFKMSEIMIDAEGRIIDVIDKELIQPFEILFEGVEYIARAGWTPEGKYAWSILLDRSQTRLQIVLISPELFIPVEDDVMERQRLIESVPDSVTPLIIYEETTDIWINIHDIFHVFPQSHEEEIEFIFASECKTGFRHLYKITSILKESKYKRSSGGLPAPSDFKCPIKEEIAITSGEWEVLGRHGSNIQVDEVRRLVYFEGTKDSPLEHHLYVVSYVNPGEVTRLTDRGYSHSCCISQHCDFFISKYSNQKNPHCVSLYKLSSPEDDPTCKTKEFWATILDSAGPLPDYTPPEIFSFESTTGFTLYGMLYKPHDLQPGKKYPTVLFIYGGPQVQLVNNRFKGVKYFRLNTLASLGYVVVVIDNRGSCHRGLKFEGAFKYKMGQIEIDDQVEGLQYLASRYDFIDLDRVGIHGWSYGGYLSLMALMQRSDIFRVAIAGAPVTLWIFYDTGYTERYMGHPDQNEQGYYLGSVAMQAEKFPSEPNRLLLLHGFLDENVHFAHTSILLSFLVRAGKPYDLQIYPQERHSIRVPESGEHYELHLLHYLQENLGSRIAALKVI

Row | Compound | IC50 [1] [µM] | IC50 [2] [µM] | IC50 [3] [µM] | Selectivity index [4] | Ki [5] [nM]
1 | N[C@@H](C[C@H](Cc1ccccc1)NCc1ccc(Cl)cc1)C(=O)N1CCCCC1 | > 125 | > 100 | – | – | –
2 | CCC(C)[C@@H](C[C@H](N)C(=O)N1CCCCC1)NCc1ccc(Cl)cc1 (some centres not stated) | 234 | > 100 | – | – | –
3 | CC(C)[C@@H](C[C@H](N)C(=O)N1CCCCC1)NCc1ccc(Cl)cc1 | > 125 | > 100 | – | – | –
4 | N[C@@H](C[C@@H](Cc1ccccc1)NCc1ccc(Cl)cc1)C(=O)N1CCCCC1 | > 125 | > 500 | – | – | –
5 | CC[C@@H](C[C@H](N)C(=O)N1CCCCC1)NCc1ccc(Cl)cc1 | > 100 | > 100 | – | – | –

Results, then the molecule that gave them:

Row | IC50 [1] [µM] | IC50 [2] [µM] | IC50 [3] [µM] | Selectivity index [4] | Ki [5] [nM] | Compound
6 | 325 | – | – | – | – | C[C@@H](C[C@H](N)C(=O)N1CCCCC1)NCc1ccc(Cl)cc1
7 | 196 | 142 | 0.00022 | > 10000 | 0.082 | N[C@@H](CCNCc1ccc(Cl)cc1)C(=O)N1CCCCC1
8 | > 250 | – | – | – | – | C[C@H](C[C@H](N)C(=O)N1CCCCC1)NCc1ccc(Cl)cc1

Source: ChEMBL document CHEMBL1149358, “Synthesis and dipeptidyl peptidase inhibition of N-(4-substituted-2,4-diaminobutanoyl)piperidines” (Bioorg Med Chem Lett, 2006)
